Results on six compounds are retold here after US20230398051A1, “Anti-Microbial Skin-Care Composition Comprising Beta-Glucan and Natural Oil” (LANTMÄNNEN OATS AB, priority 2020, published 2023).

One experiment concerns spores. Particulars: cited from earlier work.
The subject of another experiment is bacteria, viruses. The following applies: 0.5% hydrogen peroxide; cited from earlier work.
The next experiment concerns S. typhimurium. Nature of the experiment: Log reduction according to EN 1276. It is filed as cell-based.
The next experiment concerns L. monocytogenes. The experiment can be described thus: Log reduction according to EN 1276. It is filed as cell-based.
Another experiment concerns E. hirae. The experiment can be described thus: Log reduction according to EN 1276. In kind it is cell-based.
A further experiment relates to P. aeruginosa. The experiment can be described thus: Log reduction according to EN 1276. In kind it is cell-based.
The test system of another experiment is E. coli. Nature of the experiment: Log reduction according to EN 1276. In kind it is cell-based. The source says: (§1) As shown in the Examples herein, the skin-care composition is active against bacteria and due to its content of hydrogen peroxide and lactate/lactic it is contemplated to be active against viruses as well, i.e. functioning as an anti-microbial composition. It has been shown that a synergistic effect between hydrogen peroxide and lactic acid in bacteria such as E. coli, P. aeruginosa, E. hirae, S. aureus, L. monocytogenes and S. typhimurium, see the following tables: […]

The subject of a further experiment is S. aureus. Nature of the experiment: Log reduction according to EN 1276. It is filed as cell-based.
Excerpt: as §1

A further experiment deals with bacteria. The following applies: cited from earlier work.

`OO` [hydrogen peroxide]: the “concentration that will work against most spores” value in the experiment on spores is 3%. The “time in which bactericidal and virucidal activity was demonstrated” value in the experiment with bacteria, viruses is 1 min.

Consider `OO` [1% H2O2, hydrogen peroxide], for which the results for the “Log reduction according to EN 1276” value in the experiment with S. typhimurium and with L. monocytogenes were 0.5 and 0.6, respectively.

`CC(O)C(=O)O` (stereo not shown) [1% LA, pH 3, lactic acid]: the “Log reduction according to EN 1276” value is greater than 5 in the experiment with S. typhimurium and 2.2 in the experiment with L. monocytogenes.

Turning to `OO` [3% H2O2, hydrogen peroxide], the “Log reduction according to EN 1276” value is 0.1 in the experiment on E. hirae, greater than 5 with P. aeruginosa, greater than 5 with E. coli and less than 1 with S. aureus.

Consider `CC(O)C(=O)O` (stereo not shown) [lactic acid], for which the “concentration regarded as bactericidal” value in the experiment on bacteria is no less than 0.25 % w/w.

For `CC(O)C(=O)O` (stereo not shown) [1% LA, lactic acid], the results for the “Log reduction according to EN 1276” value with S. typhimurium and with L. monocytogenes were greater than 5 and 3.8, respectively.
